Assay results as given in patent publication US20230416247A1, “DRUG-LIKE MOLECULES AND METHODS FOR THE THERAPEUTIC TARGETING OF MICRORNA-21” (University of Washington, priority 2020, published 2023).

Assays:
[1] = test system: mature miR-21 and pre-miR-21 in AGS cells; assay: qRT-PCR of mature miR-21 and pre-miR-21 in AGS cells; format: cell-based, human; settings: 10 nmoles, 48 hours, relative to DMSO control
Method: FIGS. 13A-13D compare levels of mature miR-21 and pre-mi-21 measured in gastric adenocarcinoma (AGS) (FIGS. 13A and 13B, respectively) and pancreatic cancer cell line (ASPC 1) (FIGS. 13C and 13D, respectively), normalized to internal controls (U6 or U8 snRNA), in the presence of 10 nmoles of palbociclib (used here as a negative control, not expected to affect microRNA levels) and compounds −0045 and −0052, 48 hours after incubation, relative to DMSO control, and measured by standard qRT-PCR. Statistically significant changes are labeled with asterisks.
Levels of mature miR-21 and its precursor pre-miR-21 were measured in gastric carcinoma (ASG) and pancreatic (ASPC1) cancer cell lines under conditions where we observed a decrease in proliferation (FIGS. 13A-13D), using the same blind format described above.
(§1) Cell line maintenance. Using the Cancer Cell Line Encyclopedia (CCLE), in-house cancer cell lines were screened to identify cancer and tissue types with varying levels of miR-21 expression. Experiments were performed using the human-derived cell lines AGS (gastric cancer) and AsPC-1 (pancreatic cancer). Cell lines were obtained from the American Type Culture Collection and maintained per instructions from the supplier. AGS were cultured in F12K medium supplemented with 10% FBS. AsPC-1 were cultured in RPMI, with 10% FBS added. All cells were kept at 37° C. in a humidified atmosphere of 5% CO2 and underwent regular mycoplasma testing. All experiments were conducted when cells were 70-80% confluent.
Quantitative real time PCR analysis. RNA was isolated utilizing Trizol (Invitrogen) and the Direct-zol RNA Miniprep kit (Zymo Research). RNA concentration was assessed with the NanoDrop ND-1000 spectrophotometer (ThermoFisher Scientific). All microRNAs expression was tested in the two representative cell lines using qRT-PCR. Cells were seeded in 6-well plates 24 hours before treatment, at a cell confluency of 50-60%. Each cell line was treated with 10 μM compound or with only the dimethyl sulfoxide (DMSO) solvent. RNA was collected after the 48-hour time point. Expression of miR-21 was assessed utilizing the TaqMan microRNA assay (Applied Biosystems). The complementary DNA (cDNA) was synthesized using the TaqMan Reverse Transcription Reagents kit (Applied Biosystems) and was used with the TaqMan probes and Supermix (BioRad) for qRT-PCR analysis. U6 or U48 were used as internal controls for RNA levels. All experiments were performed in triplicate, with all samples normalized to the internal controls and relative expression levels calculated using the 2^ΔΔCt method.

[2] = test system: mature miR-21 in HeLa cells; assay: qRT-PCR of mature miR-21 in HeLa cells; format: cell-based; settings: for decline in levels of mature miR-21: days 4 and 5 of incubation, normalized to no compound; for reduction of all newly synthesized miR-21: worked out from the 20% decrease and miR-21 lifetime of approximately 5 days
Method: FIGS. 12A and 12B compare levels of mature miR-21 in HeLa cells, as measured by standard qRT-PCR after 5 days of incubation in the presence of palbociclib and compounds −0045 (sm1), −0050 (sm3) and −0052 (sm5) (FIG. 12A); and levels of mature miR-21 in HeLa cells were measured by qRT-PCR after 4 days of incubation in the presence of palbociclib (a control) and compounds −0045 (sm1), −0050 (sm3) and −0052 (sm5) (FIG. 12B), normalized to miR-21 levels in the absence of any compound. […] The two panels represent independent duplicates of the same experiment.
HeLa cells have relatively high levels of miR-21, and this cell line was used to evaluate whether addition of the molecules would decrease levels of mature miR-21, as expected for inhibition of miR-21 processing. […] In contrast, compounds −0045, −50 and −52, induce an approximately 20% percent decline in levels of mature miR-21 (FIGS. 12A and 12B; the comparison of FIG. 12A and FIG. 12B provides an indication in the uncertainty of the data). miR-21 is very long lived, with a lifetime of approximately 5 days. […] Similar results were obtained at higher numbers of cells/plate (200 k vs at the start of the experiment), but the experiment could not be extended beyond 2 days because of the very high cell density reached. The observed trends were nonetheless in agreement with the experiments conducted at lower cell density.

[3] = test system: pancreatic (ASPC1) cancer cell line; assay: MTS proliferation assay, ASPC1; format: cell-based, human; settings: for viability (anti-proliferative activity), MTS: as a function of time, triplicate
Text: FIGS. 10A-10F compare anti-proliferative activity of 10 nmoles of compounds −0045 and −0052 against gastric (AGS) (FIGS. 10B and 10C, respectively) and pancreatic (ASPC1) (FIGS. 10E and 10F, respectively) cancer cell lines, as measured as a function of time and compared to palbociclib (−000) (FIGS. 10A-AGS; and 10D-ASPC1) using standard MTS assays in the indicated cell lines; results were in triplicate with reported experimental uncertainty.
FIGS. 11A-11F compare anti-proliferative activity of 5 nmoles of compounds −0045 and −0052 against gastric (AGS) (FIGS. 11B and 11C, respectively) and pancreatic (ASPC1) (FIGS. 11E and 11F, respectively) cancer cell lines, as measured as a function of time and compared to palbociclib (−000) (FIGS. 11A-AGS; and 11D-ASPC1), using standard MTS assays in the indicated cell lines; results were in triplicate with reported experimental uncertainty.
The anti-proliferative activity of compounds −0045 and −0052 in two cell lines characterized by high levels of miR-21 (gastric adenocarcinoma (AGS) and pancreatic (ASPC1) cancer origin) was determined. These experiments were conducted in a double-blind format, without knowledge of the identity or binding activity of the compounds, to avoid any unintentional bias. […] Viability in the presence of both palbociclib and compound −0052 is decreased after approximately 72-96 hrs to a statistically significant extent (data points marked with asterisks are statistically significant).
as §1
Proliferation assay. The impact of the compound on cellular proliferation was assessed, with 5,000 cells in each cell line seeded in replicates of 6 in a 96 well plate and treated with DMSO or with compounds. After 48 hours, cells were treated with the MTS reagent and optical density was read to generate dose-response curves.

Row | SMILES | decrease in mature miR-21 levels [1] [%] | pre-miR-21 levels [1] | decline in levels of mature miR-21 [2] | reduction of all newly synthesized miR-21 [2] | viability (anti-proliferative activity), MTS ([3]; ASPC1, 5 nmoles of compound) | viability (anti-proliferative activity), MTS ([3]; ASPC1, 10 nmoles of compound) | cell killing activity, MTS over 6 days ([3]; ASPC1, both concentrations tested (10 and 5 nmols), double-blind)
1 | O=c1[nH]c(Nc2ccc(N3CCNCC3)cn2)nc2cnccc12 [Compound 30] | 40 | reduction in pre-miR-21 levels | approximately 20% | about 60% | reduce the viability of both cell lines to a statistically significant extent | reduce the viability of both cell lines to a statistically significant extent | Cell killing activity
2 | O=c1[nH]c(Nc2ccc(N3CCNCC3)cn2)nc2cccnc12 [Compound 25] | 40 | reduction in pre-miR-21 levels | approximately 20% | about 60% | does not | does not | –
